In assay [1] the target is T1, hCGRP receptor (CALCRL:RAMP1) (Homo sapiens, UniProt O60894+Q16602).
T1 construct: host or cells: GeneBLAzer CALCRL:RAMP1-CRE-bla Freestyle 293F
Kind of assay: CGRP receptor antagonist activity measured by cAMP assay (HTRF). The assay is classed as cell-based. As to conditions: agonist human α-CGRP; for Emax: % MPE: percent of the maximal possible effect, read-out: hCGRP-R Efficacy Antag (%) Ave; for IC50: GeneBLAzer CALCRL:RAMP1-CRE-bla Freestyle 293F cells, 30 minutes, read-out: hCGRP-R IC50 Ave. The procedure:
Example 6: CGRP Receptor Antagonist Activity Measured by cAMP Assay
CGRP receptor agonists increase intracellular cyclic adenosine mono-phosphate (cAMP). CGRP receptor antagonists can reduce the agonist effect. Antagonist activity was assessed by measurement of cyclic adenosine mono-phosphate (cAMP) using cell line stably expressing the hCGRP receptor (GeneBLAzer® CALCRL:RAMP1-CRE-bla Freestyle™ 293F, Invitrogen). hCGRP receptor expressing cells were maintained in DMEM high-glucose with GlutaMAX™ containing 10% (v/v) FBS, 0.1 mM NEAA, 25 mM HEPES, 5 ug/ml Blasticidin, 100 ug/ml Hygromycin, and 400 ug/ml Geneticin at 37° C. under 5% CO2 in a humidified atmosphere. For cAMP measurement, cells were washed once with 5 ml 1×PBS, cell maintenance media was replaced with compound buffer ((CB): DMEM containing 0.1% BSA and 0.5 mM IBMX), and flasks were incubated for 1 hour at 37° C. under 5% CO2 in a humidified atmosphere. Cells were removed from culture flasks using non-enzymatic cell dissociation buffer and harvested in CB. The reaction was performed in 384 well white small volume plates (Greiner) at a density of 10,000 cells/well. Cells were exposed to varying concentrations of antagonist compounds for 30 minutes in the presence of a fixed concentration of agonist (human α-CGRP). cAMP levels were measured using an HTRF (homogeneous time resolved fluorescence)-based competitive cAMP immunoassay (cAMP Dynamic 2 Kit, Cisbio), according to the manufacturer's instructions. […] Reported parameters include antagonist potency IC50 (the concentration causing half-maximal inhibition of the agonist response for antagonist compounds) and efficacy (% MPE: percent of the maximal possible effect).

Assay [2] deals with T2, hAM2 receptor (CALCRL:RAMP3) (Homo sapiens, UniProt O60896+Q16602).
T2 construct: expressed in transfected cells; host or cells: GeneBLAzer CALCRL:RAMP3-CRE-bla Freestyle 293F
T2 sequence (Q16602 23-461): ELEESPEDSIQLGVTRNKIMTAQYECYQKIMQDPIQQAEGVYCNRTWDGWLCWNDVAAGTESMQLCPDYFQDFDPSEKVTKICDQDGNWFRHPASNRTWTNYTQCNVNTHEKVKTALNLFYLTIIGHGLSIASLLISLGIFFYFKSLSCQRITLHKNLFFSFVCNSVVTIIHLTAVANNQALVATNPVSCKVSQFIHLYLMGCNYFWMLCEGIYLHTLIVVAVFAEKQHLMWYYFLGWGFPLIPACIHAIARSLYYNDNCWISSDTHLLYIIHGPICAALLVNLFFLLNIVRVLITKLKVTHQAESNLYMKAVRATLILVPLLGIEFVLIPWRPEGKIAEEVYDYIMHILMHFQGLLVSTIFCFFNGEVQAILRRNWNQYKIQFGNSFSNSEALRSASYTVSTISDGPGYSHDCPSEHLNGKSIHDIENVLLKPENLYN
T2 sequence (O60896 24-148): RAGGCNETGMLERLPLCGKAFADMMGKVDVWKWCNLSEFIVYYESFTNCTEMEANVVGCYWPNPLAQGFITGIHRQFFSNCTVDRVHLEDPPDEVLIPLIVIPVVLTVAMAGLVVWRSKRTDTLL
The assay is described as follows: AM2 receptor antagonist activity measured by cAMP assay (HTRF). Format: cell-based. As to conditions: for Emax: % MPE: percent of the maximal possible effect, read-out: hAM2-R Efficacy Antag (%) Ave; for Emax / IC50: agonist human adrenomedullin; for IC50: GeneBLAzer CALCRL:RAMP3-CRE-bla Freestyle 293F cells, read-out: hAM2-R IC50 Ave; for selectivity ratio CGRP/AM2: selectivity ratio for hCGRP over hAM2, calculated from the IC50 values.

Numbered stars: 1 amine (or outer) side, 2 acyl side, 3 side chain; on linkers, the order of the positions; unused ones are H or OH. Bridge positions count the residues as written; N and C are the ends. Square brackets hold non-standard residues; d marks the D form. Peptide text beside a SMILES is read from it. * marks the point of attachment. Phe(2-CONH2) = NC(=O)c1ccccc1C[C@H](N)C(=O)O; Phe(4-CH2NH2) = NCc1ccc(C[C@H](N)C(=O)O)cc1; X13 = N#CN=C(N)NCC[C@H](N[*:1])C(=O)[*:2]; Phe(3-CN) = N#Cc1cccc(C[C@H](N)C(=O)O)c1; Picolinoyl(5-F) = O=C(c1ccc(F)cn1)*; Orn(iPr) = CC(C)NCCC[C@H](N)C(=O)O; Benzoyl(4-F) = O=C(c1ccc(F)cc1)*; 3Pal = N[C@@H](Cc1cccnc1)C(=O)O; Orn = NCCC[C@H](N)C(=O)O; X8 = CC(C)NCCOCCOCC(=O)*; X7 = O=C(c1cc(F)ccn1)*; X1 = O=C(c1ncccc1F)*; X6 = O=C(c1ccncn1)*

T1 sequence (Q16602 23-461): as the sequence (Q16602 23-461) above
T1 sequence (O60894 27-148): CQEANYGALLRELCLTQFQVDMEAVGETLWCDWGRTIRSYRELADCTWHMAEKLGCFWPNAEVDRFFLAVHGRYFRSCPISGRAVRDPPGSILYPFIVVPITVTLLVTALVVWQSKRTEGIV

As to `CC(C)[C@@H]1NC(=O)[C@H](CC(=O)O)NC(=O)[C@H](CCCN)NC(=O)[C@@H](NC(=O)[C@H](Cc2ccc(O)cc2)NC(=O)[C@H](NC(=O)c2ccc(F)cn2)C(C)C)CSSC[C@@H](C(=O)N[C@@H](Cc2cccnc2)C(N)=O)NC(=O)[C@H](Cc2ccccc2)NC(=O)[C@@H]2CCCN2C(=O)CNC1=O` [Compound 12, Picolinoyl(5-F)-D-Val-Tyr-c(Cys-Orn-Asp-Val-Gly-Pro-Phe-Cys)-3Pal-NH2] ({Picolinoyl(5-F)}-[dV]YC[Orn]DVGPFC[3Pal]-NH2; disulfide 3-10), in assay [1], the Emax is 100% and the IC50 was 0.11 nM. In assay [2], the Emax was 100%, the IC50 is 18 nM and the “selectivity ratio CGRP/AM2” value is on record as 172.

Regarding `CC(C)NCCOCCOCC(=O)NCCC[C@@H]1NC(=O)[C@@H](NC(=O)[C@H](Cc2ccc(O)cc2)NC(=O)[C@H](NC(=O)c2ccc(F)cn2)C(C)C)CSSC[C@@H](C(=O)N[C@@H](Cc2cccnc2)C(N)=O)NC(=O)[C@H](Cc2ccccc2)NC(=O)[C@@H]2CCCN2C(=O)CNC(=O)[C@H](C(C)C)NC(=O)[C@H](CC(=O)O)NC1=O` [Compound 13, Picolinoyl(5-F)-D-Val-Tyr-c(Cys-Orn(CO—CH2—(O—(CH2)2)2—NH-iPr)-Asp-Val-Gly-Pro-Phe-Cys)-3Pal-NH2] ({Picolinoyl(5-F)}-[dV]YC[Orn](X8)DVGPFC[3Pal]-NH2; disulfide 3-10), in assay [1], the Emax was 100% and the IC50 is 0.1 nM. In assay [2], the Emax is 100%, the IC50 is 26 nM and the “selectivity ratio CGRP/AM2” value is recorded as 249.

As to `CC(C)NCCC[C@@H]1NC(=O)[C@@H](NC(=O)[C@H](Cc2ccc(O)cc2)NC(=O)[C@H](NC(=O)c2ccc(F)cn2)C(C)C)CSSC[C@@H](C(=O)N[C@@H](Cc2cccnc2)C(N)=O)NC(=O)[C@H](Cc2ccccc2)NC(=O)[C@@H]2CCCN2C(=O)CNC(=O)[C@H](C(C)C)NC(=O)[C@H](CC(=O)O)NC1=O` [Compound 14, Picolinoyl(5-F)-D-Val-Tyr-c(Cys-Orn(iPr)-Asp-Val-Gly-Pro-Phe-Cys)-3Pal-NH2] ({Picolinoyl(5-F)}-[dV]YC[Orn(iPr)]DVGPFC[3Pal]-NH2; disulfide 3-10), in assay [1], the Emax was 100% and the IC50 was 0.12 nM. In assay [2], the Emax was 100%, the IC50 was 20 nM and the “selectivity ratio CGRP/AM2” value is on record as 167.

Turning to `CC(C)[C@@H]1NC(=O)[C@H](CC(=O)O)NC(=O)[C@H](CCCNC(=N)N)NC(=O)[C@@H](NC(=O)[C@H](Cc2ccccc2C(N)=O)NC(=O)[C@H](NC(=O)c2ccc(F)cc2)C(C)C)CSSC[C@@H](C(=O)N[C@@H](Cc2cccnc2)C(N)=O)NC(=O)[C@H](Cc2ccccc2)NC(=O)[C@@H]2CCCN2C(=O)CNC1=O` [Compound 15] ({Benzoyl(4-F)}-[dV][Phe(2-CONH2)]CRDVGPFC[3Pal]-NH2; disulfide 3-10), in assay [1], the Emax was 100% and the IC50 is 0.1 nM. Also, in assay [2], the Emax was 99%, the IC50 was 58 nM and the “selectivity ratio CGRP/AM2” value is recorded as 610.

As to `CC(C)[C@@H]1NC(=O)[C@H](CC(=O)O)NC(=O)[C@H](CCCNC(=N)N)NC(=O)[C@@H](NC(=O)[C@H](Cc2ccc(O)cc2)NC(=O)[C@H](NC(=O)c2ccncn2)C(C)C)CSSC[C@@H](C(=O)N[C@@H](Cc2cccnc2)C(N)=O)NC(=O)[C@H](Cc2ccccc2)NC(=O)[C@@H]2CCCN2C(=O)CNC1=O` [Compound 16] (X6-[dV]YCRDVGPFC[3Pal]-NH2; disulfide 3-10), in assay [1], the Emax is 100% and the IC50 is 0.07 nM. In assay [2], the Emax was 101%, the IC50 was 6.8 nM and the “selectivity ratio CGRP/AM2” value was 93.

In the case of `CC(C)[C@@H]1NC(=O)[C@H](CC(=O)O)NC(=O)[C@H](CCCNC(=N)N)NC(=O)[C@@H](NC(=O)[C@H](Cc2ccc(O)cc2)NC(=O)[C@H](NC(=O)c2ncccc2F)C(C)C)CSSC[C@@H](C(=O)N[C@@H](Cc2cccnc2)C(N)=O)NC(=O)[C@H](Cc2ccccc2)NC(=O)[C@@H]2CCCN2C(=O)CNC1=O` [Compound 17] (X1-[dV]YCRDVGPFC[3Pal]-NH2; disulfide 3-10), in assay [1], the Emax is 100% and the IC50 was 0.05 nM. In assay [2], the Emax was 100%, the IC50 was 7.1 nM and the “selectivity ratio CGRP/AM2” value was 148.

As to `CC(C)[C@@H]1NC(=O)[C@H](CC(=O)O)NC(=O)[C@H](CCCNC(=N)N)NC(=O)[C@@H](NC(=O)[C@H](Cc2ccc(O)cc2)NC(=O)[C@H](NC(=O)c2cc(F)ccn2)C(C)C)CSSC[C@@H](C(=O)N[C@@H](Cc2cccnc2)C(N)=O)NC(=O)[C@H](Cc2ccccc2)NC(=O)[C@@H]2CCCN2C(=O)CNC1=O` [Compound 18] (X7-[dV]YCRDVGPFC[3Pal]-NH2; disulfide 3-10), in assay [1], the Emax was 100% and the IC50 is 0.16 nM. In addition, in assay [2], the Emax was 98%, the IC50 is 8.1 nM and the “selectivity ratio CGRP/AM2” value is recorded as 52.

Regarding `CC(C)[C@@H]1NC(=O)[C@H](CC(=O)O)NC(=O)[C@H](CCNC(N)=NC#N)NC(=O)[C@@H](NC(=O)[C@H](Cc2ccc(O)cc2)NC(=O)[C@H](NC(=O)c2ccc(F)cc2)C(C)C)CSSC[C@@H](C(=O)N[C@@H](Cc2cccnc2)C(N)=O)NC(=O)[C@H](Cc2ccccc2)NC(=O)[C@@H]2CCCN2C(=O)CNC1=O` [Compound 19, Bz(4-F)-D-Val-Tyr-c(Cys-norArg(CN)-Asp-Val-Gly-Pro-Phe-Cys)-3Pal-NH2] ({Benzoyl(4-F)}-[dV]YC[X13]DVGPFC[3Pal]-NH2; disulfide 3-10), the Emax in assay [1] and in assay [2] was 100% throughout.

In the case of `CC(C)[C@@H]1NC(=O)[C@H](CC(=O)O)NC(=O)[C@H](CCCNC(=N)N)NC(=O)[C@@H](NC(=O)[C@H](Cc2ccc(O)cc2)NC(=O)[C@H](NC(=O)c2ccc(F)cc2)C(C)C)CSSC[C@@H](C(=O)N[C@@H](Cc2cccnc2)C(N)=O)NC(=O)[C@H](Cc2ccc(CN)cc2)NC(=O)[C@@H]2CCCN2C(=O)CNC1=O` [Compound 20, Bz(4-F)-D-Val-Tyr-c(Cys-Arg-Asp-Val-Gly-Pro-Phe(4-CH2NH2)-Cys)-3Pal-NH2] ({Benzoyl(4-F)}-[dV]YCRDVGP[Phe(4-CH2NH2)]C[3Pal]-NH2; disulfide 3-10), in assay [1], the Emax is 100% and the IC50 is 0.18 nM. Moreover, in assay [2], the Emax is 100%, the IC50 was 54 nM and the “selectivity ratio CGRP/AM2” value was 309.

As for `CC(C)[C@@H]1NC(=O)[C@H](CC(=O)O)NC(=O)[C@H](CCCNC(=N)N)NC(=O)[C@@H](NC(=O)[C@H](Cc2ccc(O)cc2)NC(=O)[C@H](NC(=O)c2ccc(F)cc2)C(C)C)CSSC[C@@H](C(=O)N[C@@H](Cc2cccnc2)C(N)=O)NC(=O)[C@H](Cc2cccc(C#N)c2)NC(=O)[C@@H]2CCCN2C(=O)CNC1=O` [Compound 21, Bz(4-F)-D-Val-Tyr-c(Cys-Arg-Asp-Val-Gly-Pro-Phe(3-CN)-Cys)-3Pal-NH2] ({Benzoyl(4-F)}-[dV]YCRDVGP[Phe(3-CN)]C[3Pal]-NH2; disulfide 3-10), in assay [1], the Emax was 100% and the IC50 was 0.13 nM. Further, in assay [2], the Emax is 99%, the IC50 is 33 nM and the “selectivity ratio CGRP/AM2” value was 258.

What is called IC50 is the midpoint of a concentration-inhibition curve.
